Drawing on PubChem BioAssay (NCI), this text covers TGI for 12 compounds.

The structures appear in SMILES notation.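 Following 48 hours of exposure in 96-well plates, responses at five concentrations were used to interpolate endpoints linearly. TGI: total growth inhibition.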 Where a SMILES comes first, the peptide text is derived from it. The star is where a group is joined. Pentanoyl = CCCCC(=O)*; Boc = CC(C)(C)OC(=O)*

Test systems include SF-268 CNS; HT29 colon; UO-31 renal; LOX IMVI melanoma; SW-620 colon; RPMI-8226 leukemia; SK-OV-3 ovarian; HCT-15 colon; TK-10 renal; OVCAR-8 ovarian; KM12 colon; SK-MEL-2 melanoma; HOP-92 NSCLC; SK-MEL-5 melanoma; MDA-MB-435; NCI/ADR-RES ovarian; ACHN renal; SNB-75 CNS; NCI-H226 lung; EKVX NSCLC.
Holding throughout (assay): inhibition of tumour cell growth, NCI panel, 48 h

For the compound `CCCCC(=O)Oc1ccc(CC(NC(=O)OC(C)(C)C)C(=O)NC(C)C(=O)NC(Cc2ccccc2)C(=O)NCC(N)=O)cc1` (stereo not drawn) (Boc-Y(Pentanoyl)AFG-NH2; configuration not given here), the TGI with SF-268 CNS was greater than 100 µM; with HT29 colon, 40 µM; with UO-31 renal, greater than 100 µM; with LOX IMVI melanoma, 30.7 µM; in the assay on SW-620 colon it was greater than 100 µM; in the assay on RPMI-8226 leukemia it was 44.8 µM. The TGI is greater than 100 µM with SK-OV-3 ovarian; greater than 100 µM in the assay with HCT-15 colon; greater than 100 µM in the assay with TK-10 renal; 62.5 µM with OVCAR-8 ovarian; 47.8 µM with KM12 colon; 41.1 µM with SK-MEL-2 melanoma. Further, the TGI was 99.4 µM with HOP-92 NSCLC; greater than 100 µM in the assay on SK-MEL-5 melanoma; 45.1 µM with MDA-MB-435; greater than 100 µM in the assay with NCI/ADR-RES ovarian; greater than 100 µM in the assay with ACHN renal; greater than 100 µM with SNB-75 CNS. In the assay on NCI-H226 lung, this compound had a TGI greater than 100 µM.

Take `Oc1ccc2oc3c(O)c4ccccc4cc3c2c1`: the TGI turned out to be 21.5 µM in the assay on SF-268 CNS; 48.6 µM with HT29 colon; 15.8 µM in the assay on UO-31 renal; 21.9 µM with LOX IMVI melanoma; 14.1 µM in the assay with SW-620 colon; 3.96 µM in the assay on RPMI-8226 leukemia. Besides, the TGI in the assay with SK-OV-3 ovarian came out at 53.2 µM; in the assay with HCT-15 colon, 21.3 µM; in the assay with TK-10 renal it was 45 µM; in the assay on OVCAR-8 ovarian, 16.5 µM; in the assay on KM12 colon, 10.5 µM; with SK-MEL-2 melanoma, 93 µM. In addition, the TGI in the assay with HOP-92 NSCLC was 41.6 µM; with SK-MEL-5 melanoma, 7.5 µM; with MDA-MB-435, 5.33 µM; in the assay with NCI/ADR-RES ovarian it was 9.74 µM; in the assay on ACHN renal, 21 µM.

As to `Cc1ccc(/C(=C\C(=O)C(=O)NC23CC4CC(CC(C4)C2)C3)Sc2ccccc2)cc1`, the TGI with SF-268 CNS, with HT29 colon, in the assay on UO-31 renal, with LOX IMVI melanoma, in the assay with SW-620 colon and in the assay with RPMI-8226 leukemia was greater than 10 µM each time. The TGI in the assay with SK-OV-3 ovarian, in the assay with HCT-15 colon, in the assay on TK-10 renal, in the assay on EKVX NSCLC, in the assay with OVCAR-8 ovarian and with KM12 colon was greater than 10 µM throughout. The TGI in the assay with SK-MEL-2 melanoma, with SK-MEL-5 melanoma, in the assay with MDA-MB-435, with NCI/ADR-RES ovarian, in the assay with ACHN renal and in the assay on SNB-75 CNS was greater than 10 µM in each case. Further, the TGI in the assay on NCI-H226 lung was greater than 10 µM.

For the compound `CCC1(CCSC(=N)N)C(=O)NC(=O)NC1=O`, the TGI in the assay on SF-268 CNS, in the assay on HT29 colon, in the assay with UO-31 renal, in the assay on LOX IMVI melanoma, in the assay with SW-620 colon and with RPMI-8226 leukemia was greater than 100 µM in each case. Further, the TGI with SK-OV-3 ovarian, in the assay with HCT-15 colon, in the assay with TK-10 renal, with EKVX NSCLC, with OVCAR-8 ovarian and with KM12 colon was greater than 100 µM each time. Besides, the TGI with SK-MEL-2 melanoma, with HOP-92 NSCLC, with SK-MEL-5 melanoma, with MDA-MB-435, in the assay with NCI/ADR-RES ovarian and in the assay on ACHN renal was greater than 100 µM throughout. In addition, the TGI with NCI-H226 lung is greater than 100 µM.

With `CCC(=O)N1NC(=O)C(CC)(CC)C1=O`, the TGI in the assay with SF-268 CNS, in the assay on HT29 colon, in the assay on UO-31 renal, in the assay on LOX IMVI melanoma, in the assay on SW-620 colon and in the assay with RPMI-8226 leukemia was greater than 100 µM each time. Also, the TGI with SK-OV-3 ovarian, with HCT-15 colon, with TK-10 renal, with EKVX NSCLC, with OVCAR-8 ovarian and in the assay on KM12 colon was greater than 100 µM in each case. Also, the TGI with SK-MEL-2 melanoma, with SK-MEL-5 melanoma, in the assay with MDA-MB-435, in the assay with NCI/ADR-RES ovarian, with ACHN renal and in the assay on SNB-75 CNS was greater than 100 µM throughout. Also, the TGI in the assay with NCI-H226 lung is greater than 100 µM.

Consider `CCOP(=O)(OCC)C(N)Cc1ccc(OC)c(OC)c1` (stereo not drawn), for which the TGI in the assay on SF-268 CNS, in the assay on HT29 colon, in the assay with UO-31 renal, in the assay with SW-620 colon, in the assay on RPMI-8226 leukemia and in the assay with HCT-15 colon was greater than 100 µM each time. In addition, the TGI in the assay with TK-10 renal, in the assay on OVCAR-8 ovarian, with KM12 colon, in the assay with SK-MEL-2 melanoma, with HOP-92 NSCLC and in the assay with SK-MEL-5 melanoma was greater than 100 µM each time. The TGI in the assay with MDA-MB-435, in the assay on NCI/ADR-RES ovarian, in the assay on ACHN renal, in the assay with SNB-75 CNS and in the assay on NCI-H226 lung was greater than 100 µM in each case.

Turning to `O=c1oc2nc(-c3ccccc3)cc(C(F)(F)F)c2n1Cc1ccccc1`, the TGI is greater than 100 µM in the assay with SF-268 CNS; greater than 100 µM in the assay on HT29 colon; greater than 100 µM in the assay with UO-31 renal; greater than 100 µM in the assay with LOX IMVI melanoma; greater than 100 µM in the assay on SW-620 colon; greater than 30.8 µM in the assay with RPMI-8226 leukemia. Further, the TGI in the assay with SK-OV-3 ovarian, in the assay on HCT-15 colon, with TK-10 renal, with EKVX NSCLC, with OVCAR-8 ovarian and with KM12 colon was greater than 100 µM each time. Besides, the TGI with SK-MEL-2 melanoma was greater than 100 µM; in the assay with HOP-92 NSCLC it was greater than 100 µM; with SK-MEL-5 melanoma, greater than 100 µM; in the assay on MDA-MB-435 it was 3.13 µM; with NCI/ADR-RES ovarian, greater than 60.4 µM; in the assay with ACHN renal, greater than 100 µM. Also, the TGI in the assay on NCI-H226 lung was greater than 100 µM.

Regarding `O=[As](O)(O)c1ccc(N=Nc2ccc([As](=O)(O)O)cc2)cc1`, the TGI in the assay on SF-268 CNS, in the assay on HT29 colon, in the assay with UO-31 renal, in the assay on LOX IMVI melanoma, with SW-620 colon and in the assay with HCT-15 colon was greater than 100 µM each time. In addition, the TGI in the assay with TK-10 renal, with EKVX NSCLC, in the assay on OVCAR-8 ovarian, in the assay on KM12 colon, with SK-MEL-2 melanoma and with HOP-92 NSCLC was greater than 100 µM each time. The TGI in the assay on SK-MEL-5 melanoma, in the assay with MDA-MB-435, in the assay with NCI/ADR-RES ovarian, with ACHN renal and in the assay with NCI-H226 lung was greater than 100 µM in each case.

On to `CO/N=C(/C(=O)N(C(=O)/C(=N/OC)c1csc(NC(c2ccccc2)(c2ccccc2)c2ccccc2)n1)n1cnn(CC(=O)OC(C)(C)C)c1=O)c1csc(NC(c2ccccc2)(c2ccccc2)c2ccccc2)n1`, for which the TGI with SF-268 CNS, in the assay on HT29 colon, in the assay with UO-31 renal, in the assay on LOX IMVI melanoma, with SW-620 colon and with RPMI-8226 leukemia was greater than 10 µM throughout. Further, the TGI in the assay on SK-OV-3 ovarian, in the assay with HCT-15 colon, with TK-10 renal, in the assay with EKVX NSCLC, in the assay with OVCAR-8 ovarian and in the assay on KM12 colon was greater than 10 µM each time. Besides, the TGI is 3.92 µM in the assay on SK-MEL-2 melanoma; greater than 10 µM in the assay with SK-MEL-5 melanoma; greater than 10 µM in the assay with MDA-MB-435; greater than 10 µM in the assay with NCI/ADR-RES ovarian; greater than 10 µM in the assay on ACHN renal; greater than 10 µM in the assay on SNB-75 CNS. The compound further displayed a TGI with NCI-H226 lung greater than 10 µM.

For the compound `C=C1CCCCCCCCCCC12SCCC2CCCCSC` (stereo not drawn), the TGI in the assay with SF-268 CNS was found to be 67.4 µM; in the assay on HT29 colon, 61.4 µM; in the assay with UO-31 renal, 60.4 µM; in the assay on LOX IMVI melanoma it was 34.2 µM; in the assay with SW-620 colon, 68.9 µM; in the assay with RPMI-8226 leukemia it was 46 µM. Further, the TGI was greater than 100 µM in the assay with SK-OV-3 ovarian; 73.4 µM with HCT-15 colon; 86.4 µM in the assay with EKVX NSCLC; 56.4 µM in the assay with OVCAR-8 ovarian; 37.7 µM in the assay with SK-MEL-2 melanoma; 62.5 µM with HOP-92 NSCLC. In addition, the TGI with SK-MEL-5 melanoma came to 33.1 µM; with MDA-MB-435 it was 75.7 µM; in the assay with NCI/ADR-RES ovarian it was 46.2 µM; in the assay on ACHN renal, 38.9 µM; in the assay with NCI-H226 lung, 36.2 µM.

Turning to `Nc1c(-c2nc3ccccc3o2)sc(=S)n1-c1ccc(Cl)cc1`, the TGI with SF-268 CNS is 33.9 µM; in the assay with HT29 colon it was greater than 100 µM; with UO-31 renal, greater than 100 µM; with RPMI-8226 leukemia, greater than 100 µM; with SK-OV-3 ovarian, 33.2 µM; in the assay on HCT-15 colon it was greater than 100 µM. In addition, the TGI in the assay on TK-10 renal is greater than 100 µM; with EKVX NSCLC it was greater than 100 µM; in the assay with OVCAR-8 ovarian it was 30.2 µM; in the assay with KM12 colon it was greater than 100 µM; in the assay on SK-MEL-2 melanoma, 47.8 µM; in the assay on HOP-92 NSCLC, 63.3 µM. For the same compound, the TGI with SK-MEL-5 melanoma is 56.9 µM; in the assay with MDA-MB-435, greater than 100 µM; in the assay with NCI/ADR-RES ovarian, 74.1 µM; in the assay with ACHN renal, 24.1 µM; with NCI-H226 lung, 67.1 µM.

Consider `C=CCCCC1SC2=C(CC)CCCN2C1=O` (stereo not drawn), for which the TGI with SF-268 CNS, in the assay with HT29 colon, with UO-31 renal, in the assay with LOX IMVI melanoma, with SW-620 colon and in the assay on RPMI-8226 leukemia was greater than 100 µM in each case. The TGI with SK-OV-3 ovarian, in the assay with HCT-15 colon, with TK-10 renal, in the assay on EKVX NSCLC, with OVCAR-8 ovarian and with KM12 colon was greater than 100 µM each time. In addition, the TGI in the assay with SK-MEL-2 melanoma, in the assay on HOP-92 NSCLC, in the assay on SK-MEL-5 melanoma, in the assay with MDA-MB-435, with NCI/ADR-RES ovarian and in the assay on ACHN renal was greater than 100 µM throughout. The TGI in the assay on NCI-H226 lung was greater than 100 µM.
